# Measurements as given in US20240360177A1, “PEPTIDES WITH ANTIMICROBIAL ACTIVITIES” (priority 2021, published 2024).
# Non-standard residues stand in square brackets, D forms with d. Residues, ends and D or L forms follow the SMILES beside them. hArg = N=C(N)NCCCC[C@H](N)C(=O)O; Ava = NCCCCC(=O)O
# How the values were obtained:
# [1] = tested on: C. tropicalis; conditions: 24 h
# [2] = tested on: Lomentospora prolificans
# [3] = tested on: Scedosporium spp.; conditions: 72 h
# [4] = tested on: C. parapsilosis; conditions: 24 h
# [5] = tested on: C. glabrata; conditions: 24 h
# [6] = tested on: C. gattii; conditions: 72 h
# [7] = tested on: C. albicans; conditions: 24 h
# [8] = tested on: C. neoformans; conditions: 72 h
# [9] = tested on: C. krusei; conditions: 24 h
# [10] = tested on: C. dubliniensis; conditions: 24 h
# [11] = tested on: C. auris; conditions: 24 h
# [12] = tested on: Candida spp.
Compound,MIC C. tropicalis [1] [µg/mL],MIC Range Lomentospora prolificans [2] [µg/mL],MIC Range Scedosporium spp. [3] [µg/mL],MIC C. parapsilosis [4] [µg/mL],MIC C. glabrata [5] [µg/mL],MIC C. gattii [6] [µg/mL],MIC C. albicans [7] [µg/mL],MIC C. neoformans [8] [µg/mL],MIC C. krusei [9] [µg/mL],MIC C. dubliniensis [10] [µg/mL],MIC C. auris [11] [µg/mL],Activity at 24 h MIC50 against Candida spp. ([12]; 24 h) [µg/mL],Activity at 24 h MIC90 against Candida spp. ([12]; 24 h) [µg/mL],Activity at 48 h MIC50 against Candida spp. ([12]; 48 h) [µg/mL],Activity at 48 h MIC90 against Candida spp. ([12]; 48 h) [µg/mL]
"N=C(N)NCCC[C@@H](N)C(=O)N[C@@H](CCCNC(=N)N)C(=O)NCCCCC(=O)N[C@H](CCCNC(=N)N)C(=O)N[C@@H](CCCNC(=N)N)C(=O)NCCCCC(=O)N[C@H](CCCNC(=N)N)C(=O)N[C@@H](CCCNC(=N)N)C(=O)N[C@H](CCCNC(=N)N)C(=O)NCCCCC(=O)N[C@H](CCCNC(=N)N)C(=O)N[C@@H](CCCNC(=N)N)C(=O)N[C@H](CCCNC(=N)N)C(N)=O [SEQ ID NO: 26, rR-(Ava)-rR-(Ava)-rRr-(Ava)-rRr-NH2] (H-[dR]R[Ava][dR]R[Ava][dR]R[dR][Ava][dR]R[dR]-NH2)",2,32,16 to 32,0.5,8,4,8,16,8,4,>32,–,–,–,–
"N=C(N)NCCC[C@@H](N)C(=O)N[C@@H](CCCNC(=N)N)C(=O)N1CCC[C@H]1C(=O)N[C@H](CCCNC(=N)N)C(=O)N[C@@H](CCCNC(=N)N)C(=O)N[C@H](CCCNC(=N)N)C(=O)N1CCC[C@H]1C(=O)N[C@H](CCCNC(=N)N)C(=O)N[C@@H](CCCNC(=N)N)C(=O)N1CCC[C@H]1C(=O)N[C@H](CCCNC(=N)N)C(=O)N[C@@H](CCCNC(=N)N)C(=O)N[C@H](CCCNC(=N)N)C(N)=O [SEQ ID NO: 72, rR-P-rRr-P-rR-P-rRr-NH2] (H-[dR]RP[dR]R[dR]P[dR]RP[dR]R[dR]-NH2)",0.5,32,16,0.25,1,4,2,16,2,2,>32,–,–,–,–
"N=C(N)NCCC[C@@H](N)C(=O)N[C@@H](CCCNC(=N)N)C(=O)N[C@H](CCCNC(=N)N)C(=O)N1CCC[C@H]1C(=O)N[C@H](CCCNC(=N)N)C(=O)N[C@@H](CCCNC(=N)N)C(=O)N[C@H](CCCNC(=N)N)C(=O)N1CCC[C@H]1C(=O)N[C@H](CCCNC(=N)N)C(=O)N[C@@H](CCCNC(=N)N)C(=O)N1CCC[C@H]1C(=O)N[C@H](CCCNC(=N)N)C(=O)N[C@@H](CCCNC(=N)N)C(N)=O [SEQ ID NO: 69, rRr-P-rRr-P-rR-P-rR-NH2] (H-[dR]R[dR]P[dR]R[dR]P[dR]RP[dR]R-NH2)",0.5,32,8 to 16,0.5,2,2,0.25,8,1,0.25,>32,–,–,–,–
"N=C(N)NCCCC[C@H](NC(=O)[C@@H](CCCNC(=N)N)NC(=O)[C@H](CCCCNC(=N)N)NC(=O)[C@@H](CCCNC(=N)N)NC(=O)CCCCNC(=O)[C@H](CCCCNC(=N)N)NC(=O)[C@@H](CCCNC(=N)N)NC(=O)[C@H](CCCCNC(=N)N)NC(=O)[C@@H](CCCNC(=N)N)NC(=O)CCCCNC(=O)[C@@H](CCCNC(=N)N)NC(=O)[C@H](CCCCNC(=N)N)NC(=O)[C@@H](CCCNC(=N)N)NC(=O)CCCCNC(=O)[C@@H](CCCNC(=N)N)NC(=O)[C@H](CCCCNC(=N)N)NC(=O)[C@H](N)CCCNC(=N)N)C(N)=O [SEQ ID NO: 89, r(Har)r-(Ava)-r(Har)r-(Ava)-r(Har)r(Har)-(Ava)-r(Har)r(Har)-NH2] (H-[dR][hArg][dR][Ava][dR][hArg][dR][Ava][dR][hArg][dR][hArg][Ava][dR][hArg][dR][hArg]-NH2)",1,–,–,0.5,1,0.25,1,0.25,1,1,0.5,–,–,–,–
"N=C(N)NCCC[C@@H](N)C(=O)N[C@@H](CCCNC(=N)N)C(=O)N1CCC[C@H]1C(=O)N[C@H](CCCNC(=N)N)C(=O)N[C@@H](CCCNC(=N)N)C(=O)N[C@H](CCCNC(=N)N)C(=O)N1CCC[C@H]1C(=O)N[C@H](CCCNC(=N)N)C(=O)N[C@@H](CCCNC(=N)N)C(=O)N[C@H](CCCNC(=N)N)C(=O)N1CCC[C@H]1C(=O)N[C@H](CCCNC(=N)N)C(=O)N[C@@H](CCCNC(=N)N)C(N)=O [SEQ ID NO: 71, rR-P-rRr-P-rRr-P-rR-NH2] (H-[dR]RP[dR]R[dR]P[dR]R[dR]P[dR]R-NH2)",0.5,8,4 to 8,0.25,1,4,0.5,8,2,1,>32,–,–,–,–
"N=C(N)NCCC[C@@H](N)C(=O)N[C@@H](CCCNC(=N)N)C(=O)N[C@H](CCCNC(=N)N)C(=O)NCCCCC(=O)N[C@H](CCCNC(=N)N)C(=O)N[C@@H](CCCNC(=N)N)C(=O)NCCCCC(=O)N[C@H](CCCNC(=N)N)C(=O)N[C@@H](CCCNC(=N)N)C(=O)N[C@H](CCCNC(=N)N)C(=O)NCCCCC(=O)N[C@H](CCCNC(=N)N)C(=O)N[C@@H](CCCNC(=N)N)C(N)=O [SEQ ID NO: 24, rRr-(Ava)-rR-(Ava)-rRr-(Ava)-rR-NH2] (H-[dR]R[dR][Ava][dR]R[Ava][dR]R[dR][Ava][dR]R-NH2)",1,>32,8 to 32,0.25,8,4,2,16,8,1,>32,–,–,–,–
"N=C(N)NCCC[C@@H](N)C(=O)N[C@@H](CCCNC(=N)N)C(=O)N1CCC[C@H]1C(=O)N[C@H](CCCNC(=N)N)C(=O)N[C@@H](CCCNC(=N)N)C(=O)N1CCC[C@H]1C(=O)N[C@H](CCCNC(=N)N)C(=O)N[C@@H](CCCNC(=N)N)C(=O)N[C@H](CCCNC(=N)N)C(=O)N1CCC[C@H]1C(=O)N[C@H](CCCNC(=N)N)C(=O)N[C@@H](CCCNC(=N)N)C(=O)N[C@H](CCCNC(=N)N)C(N)=O [SEQ ID NO: 73, rR-P-rR-P-rRr-P-rRr-NH2] (H-[dR]RP[dR]RP[dR]R[dR]P[dR]R[dR]-NH2)",1,32,8 to 16,0.5,1,2,1,8,2,2,>32,–,–,–,–
"N=C(N)NCCC[C@@H](N)C(=O)N[C@@H](CCCNC(=N)N)C(=O)N[C@H](CCCNC(=N)N)C(=O)N[C@@H](CCCNC(=N)N)C(=O)N[C@H](CCCNC(=N)N)C(=O)N1CCC[C@H]1C(=O)N[C@H](CCCNC(=N)N)C(=O)N[C@@H](CCCNC(=N)N)C(=O)N[C@H](CCCNC(=N)N)C(=O)N[C@@H](CCCNC(=N)N)C(=O)N[C@H](CCCNC(=N)N)C(=O)N1CCC[C@H]1C(=O)N[C@H](CCCNC(=N)N)C(=O)N[C@@H](CCCNC(=N)N)C(=O)N[C@H](CCCNC(=N)N)C(=O)N[C@@H](CCCNC(=N)N)C(N)=O [SEQ ID NO: 61, rRrRr-P-rRrRr-P-rRrR-NH2] (H-[dR]R[dR]R[dR]P[dR]R[dR]R[dR]P[dR]R[dR]R-NH2)",0.25,–,–,0.25,0.5,–,0.25,–,0.5,0.25,1,0.5,1,0.5,16
